Measurements published in patent US20220056019A1, “FARNESOID X RECEPTOR AGONISTS AND USES THEREOF” (Metacrine, Inc., priority 2018, published 2022).

Biological target: T1, hFXR (Homo sapiens, UniProt Q96RI1)
T1 construct: expressed in transfected cells; host or cells: CV-1 cells
T1 sequence (Q96RI1 1-486): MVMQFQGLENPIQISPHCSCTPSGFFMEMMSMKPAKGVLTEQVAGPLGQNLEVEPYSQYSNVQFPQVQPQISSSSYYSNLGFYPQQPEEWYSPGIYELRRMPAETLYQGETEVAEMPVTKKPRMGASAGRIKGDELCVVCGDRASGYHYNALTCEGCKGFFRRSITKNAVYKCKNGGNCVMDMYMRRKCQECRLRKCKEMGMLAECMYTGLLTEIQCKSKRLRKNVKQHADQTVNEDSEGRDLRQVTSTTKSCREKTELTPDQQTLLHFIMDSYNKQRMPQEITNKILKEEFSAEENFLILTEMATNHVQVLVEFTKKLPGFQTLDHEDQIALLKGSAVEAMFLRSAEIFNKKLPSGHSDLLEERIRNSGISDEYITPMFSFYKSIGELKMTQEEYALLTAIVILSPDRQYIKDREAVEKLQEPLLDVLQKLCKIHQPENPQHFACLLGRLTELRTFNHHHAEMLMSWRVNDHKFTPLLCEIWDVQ
T1 sequence (P19793 1-462 partner): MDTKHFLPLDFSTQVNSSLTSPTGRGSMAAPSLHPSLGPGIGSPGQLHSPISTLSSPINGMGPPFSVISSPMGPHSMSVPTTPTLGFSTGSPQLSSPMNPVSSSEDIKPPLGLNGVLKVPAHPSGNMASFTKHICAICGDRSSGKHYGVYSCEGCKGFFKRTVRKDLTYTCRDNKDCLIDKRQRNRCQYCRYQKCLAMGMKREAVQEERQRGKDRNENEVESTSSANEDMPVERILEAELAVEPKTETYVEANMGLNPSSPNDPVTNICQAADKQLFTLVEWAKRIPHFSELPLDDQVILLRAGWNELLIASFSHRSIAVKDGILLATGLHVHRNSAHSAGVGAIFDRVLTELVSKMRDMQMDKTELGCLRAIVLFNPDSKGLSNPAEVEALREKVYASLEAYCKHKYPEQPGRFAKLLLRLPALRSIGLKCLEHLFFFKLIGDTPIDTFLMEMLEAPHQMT
Assay: In Vitro FXR Assay (TK): TK-ECRE-luc reporter in transfected CV-1 cells
Assay type: cell-based
Settings: 18 hrs incubation, luminescence
Method: Example B-1: In Vitro FXR Assay (TK)
CV-1 cells were seeded at a density of 2,000,000 cells in a T175 flask with DMEM+10% charcoal double-stripped FBS and incubated at 37° C. in 5% CO2 for 18 h (O/N).
After 18 h of incubation, the medium in the T175 flask was changed with fresh DMEM+10% charcoal super-stripped serum. In a polypropylene tube, 2500 μL OptiMEM (Life Technologies, Cat #31985-062) was combined with expression plasmids for hFXR, hRXR, TK-ECRE-luc and pCMX-YFP. The tube was then briefly vortexed and incubated at room temperature for 5 minutes. Transfection reagent (X-tremeGENE HP from Roche, Cat #06 366 236 001) was added to the OptiMEM/plasmid mixture vortexed and incubated at room temperature for 20 minutes. Following incubation, the transfection reagent/DNA mixture complex was added to cells in the T175 flask and the cells were incubated at 37° C. in 5% CO2 for 18 h (O/N).
Compounds were serially diluted in DMSO and added to transfected CV-1 cells. The cells were then incubated for 18 hrs. The next day cells were lysed and examined for luminescence.

Row | SMILES | EC50
1 | COc1ccc([C@H]2CC[C@H](CN(c3cc(-c4coc(C(C)C)n4)ccn3)C(=O)[C@H]3CC[C@H](OC(=O)NC4COC4)CC3)CC2)cc1C [Compound 2.52, trans-4-((4-(2-Isopropyloxazol-4-yl)pyridin-2-yl)(((trans)-4-(4-methoxy-3-methylphenyl)cyclohexyl)methyl)carbamoyl)cyclohexyl oxetan-3-ylcarbamate] | ≤ 0.05 µM
2 | COc1ccc(C23CCC(CN(c4cc(-c5cnn(C(C)C)c5)ccn4)C(=O)[C@H]4CC[C@H](NC(=O)CO)CC4)(CC2)CC3)cc1C [Compound 9.02, trans-4-(2-Hydroxyacetamido)-N-(4-(1-isopropyl-1H-pyrazol-4-yl)pyridin-2-yl)-N-((4-(4-methoxy-3-methylphenyl)bicyclo[2.2.2]octan-1-yl)methyl)cyclohexanecarboxamide] | ≤ 0.05 µM
3 | COc1ncc([C@H]2CC[C@H](CN(c3cc(-c4cnn(C(C)C)c4)ccn3)C(=O)[C@H]3CC[C@H](OC(=O)N4CC(N(C)C)C4)CC3)CC2)cc1Cl [Compound 1.08, trans-4-((((trans)-4-(5-Chloro-6-methoxypyridin-3-yl)cyclohexyl)methyl)(4-(1-isopropyl-1H-pyrazol-4-yl)pyridin-2-yl)carbamoyl)cyclohexyl 3-(dimethylamino)azetidine-1-carboxylate] | ≤ 0.05 µM
4 | COc1ccc([C@H]2CC[C@H](CN(c3cc(-c4cnn(C(C)C)c4)ccn3)C(=O)[C@H]3CC[C@H](OC(=O)NCCC(C)(C)O)CC3)CC2)cc1C [Compound 2.21, trans-4-((4-(1-Isopropyl-1H-pyrazol-4-yl)pyridin-2-yl) ((trans-4-(4-methoxy-3-methylphenyl)cyclohexyl)methyl)carbamoyl) cyclohexyl(3-hydroxy-3-methylbutyl)carbamate] | ≤ 0.05 µM
5 | COc1ccc([C@H]2CC[C@H](CN(c3cc(-c4cnc(N(C)C)nc4)ccn3)C(=O)[C@H]3CC[C@H](OC(=O)N4CC(O)C4)CC3)CC2)cc1C [Compound 3.01, trans-4-((4-(2-(Dimethylamino)pyrimidin-5-yl)pyridin-2-yl)((trans-4-(4-methoxy-3-methylphenyl)cyclohexyl)methyl)carbamoyl) cyclohexyl 3-hydroxyazetidine-1-carboxylate] | ≤ 0.05 µM
6 | COc1ccc([C@H]2CC[C@H](CN(c3cc(-c4cnn(C(C)C)c4)ccn3)C(=O)[C@H]3CC[C@H](OC(=O)NC[C@@H](F)CF)CC3)CC2)cc1C [Compound 2.32, trans-4-((4-(1-Isopropyl-1H-pyrazol-4-yl)pyridin-2-yl)(((trans)-4-(4-methoxy-3-methylphenyl)cyclohexyl)methyl)carbamoyl) cyclohexyl((R)-2,3-difluoropropyl)carbamate] | ≤ 0.05 µM
7 | COc1ccc(C23CCC(CN(c4cc(-c5cnn(C6(C)CCC6)c5)c(F)cn4)C(=O)[C@H]4CC[C@H](OC(=O)N5CC(O)C5)CC4)(CC2)CC3)cc1C [Compound 25.18, 4-((5-Fluoro-4-(1-(1-methylcyclobutyl)-1H-pyrazol-4-yl)pyridin-2-yl)((4-(4-methoxy-3-methylphenyl)bicyclo[2.2.2]octan-1-yl)methyl)carbamoyl)cyclohexyl trans-3-hydroxyazetidine-1-carboxylate] | ≤ 0.05 µM
8 | COc1ccc([C@H]2CC[C@H](CN(c3cc(-c4coc(C5CC5)n4)ccn3)C(=O)[C@H]3CC[C@H](OC(=O)NC(C)C)CC3)CC2)cc1C [Compound 2.46, trans-4-((4-(2-Cyclopropyloxazol-4-yl)pyridin-2-yl)((trans-4-(4-methoxy-3-methylphenyl)cyclohexyl)methyl)carbamoyl)cyclohexyl isopropylcarbamate] | ≤ 0.05 µM
9 | COc1ccc(C23CCC(CN(c4cc(-c5cnn(C(C)C)c5)c(F)cn4)C(=O)[C@H]4CC[C@H](OC(=O)NCCCO)CC4)(CC2)CC3)cc1C [Compound 25.05, 4-((5-Fluoro-4-(1-isopropyl-1H-pyrazol-4-yl)pyridin-2-yl)((4-(4-methoxy-3-methylphenyl)bicyclo[2.2.2]octan-1-yl)methyl)carbamoyl)cyclohexyl trans-(3-hydroxypropyl)carbamate] | ≤ 0.05 µM
10 | COc1ccc([C@H]2CC[C@H](CN(c3cccc(-c4cnn(C(C)C)c4)c3)C(=O)[C@H]3CC[C@H](NC(=O)C4CCCCC4)CC3)CC2)cc1C [Compound 10.01, trans-4-(Cyclohexanecarboxamido)-N-(3-(1-isopropyl-1H-pyrazol-4-yl)phenyl)-N-((trans-4-(4-methoxy-3-methylphenyl)cyclohexyl)methyl) cyclohexanecarboxamide] | 0.05 to 1 µM
11 | COc1ccc(C23CCC(CN(c4nccc(-c5cnn(C6(C)CCC6)c5)n4)C(=O)[C@H]4CC[C@H](OC(=O)N5CC(O)C5)CC4)(CC2)CC3)cc1C [Compound 25.25, 4-(((4-(4-Methoxy-3-methylphenyl)bicyclo[2.2.2]octan-1-yl)methyl)(4-(1-(1-methylcyclobutyl)-1H-pyrazol-4-yl)pyrimidin-2-yl)carbamoyl)cyclohexyl trans-3-hydroxyazetidine-1-carboxylate] | ≤ 0.05 µM
12 | COc1ccc([C@H]2CC[C@H](CN(c3cc(-n4cnc(C5CC5)n4)ccn3)C(=O)[C@H]3CC[C@H](OC(=O)N4CC(O)C4)CC3)CC2)cc1C [Compound 2.39, trans-4-((4-(3-Cyclopropyl-1H-1,2,4-triazol-1-yl)pyridin-2-yl)((trans-4-(4-methoxy-3-methylphenyl)cyclohexyl)methyl)carbamoyl)cyclohexyl 3-hydroxyazetidine-1-carboxylate] | ≤ 0.05 µM
13 | COc1ccc(C23CCC(CN(c4cc(-c5cnc(C(C)C)s5)ccn4)C(=O)[C@H]4CC[C@H](OC(=O)N5CC(CO)C5)CC4)(CC2)CC3)cc1C [Compound 4.29, 4-((4-(2-Isopropylthiazol-5-yl)pyridin-2-yl)((4-(4-methoxy-3-methylphenyl)bicyclo[2.2.2]octan-1-yl)methyl)carbamoyl)(trans-cyclohexyl) 3-(hydroxymethyl)azetidine-1-carboxylate] | ≤ 0.05 µM
14 | CC(C)c1ccc(C23CCC(CN(c4cncc(-c5cnn(C(C)C)c5)n4)C(=O)[C@H]4CC[C@H](OC(=O)N5CC(O)C5)CC4)(CC2)CC3)cc1 [Compound 4.63, 4-((6-(1-Isopropyl-1H-pyrazol-4-yl)pyrazin-2-yl) ((4-(4-isopropylphenyl)bicyclo[2.2.2]octan-1-yl)methyl)carbamoyl)(trans-cyclohexyl) 3-hydroxyazetidine-1-carboxylate] | ≤ 0.05 µM
15 | COc1ccc(C23CCC(CN(c4cc(-c5cnn(C(C)C)c5)ccn4)C(=O)[C@H]4CC[C@H](OC(=O)N5CC(S(C)(=O)=O)C5)CC4)(CC2)CC3)cc1C [Compound 4.11, 4-((4-(1-Isopropyl-1H-pyrazol-4-yl)pyridin-2-yl)((4-(4-methoxy-3-methylphenyl)bicyclo [2.2.2]octan-1-yl)methyl)carbamoyl)cyclohexyl 3-(methylsulfonyl) azetidine-trans-1-carboxylate] | ≤ 0.05 µM
16 | CC(C)n1cc(-c2ccnc(N(CC34CCC(C5CCCCC5)(CC3)CC4)C(=O)[C@H]3CC[C@H](OC(=O)N4CC(O)C4)CC3)c2)cn1 [Compound 26.15, 4-(((4-Cyclohexylbicyclo[2.2.2]octan-1-yl)methyl)(4-(1-isopropyl-1H-pyrazol-4-yl)pyridin-2-yl)carbamoyl)cyclohexyl trans-3-hydroxyazetidine-1-carboxylate] | ≤ 0.05 µM
17 | COc1ccc([C@H]2CC[C@H](CN(c3cccc(-c4cnn(C(C)C)c4)c3)C(=O)[C@H]3CC[C@H](NC(=O)OC(C)C)CC3)CC2)cc1C [Compound 6.02, Isopropyl (trans-4-((3-(1-isopropyl-1H-pyrazol-4-yl)phenyl)((trans-4-(4-methoxy-3-methylphenyl)cyclohexyl)meth-yl)carbamoyl)cyclohexyl)carbamate] | ≤ 0.05 µM
18 | COc1ccc(C23CCC(CN(c4cc(-c5coc(C(C)C)n5)ccn4)C(=O)[C@H]4CC[C@H](OC(=O)NCCC(C)(C)O)CC4)(CC2)CC3)cc1C [Compound 23.06, 4-((4-(2-Isopropyloxazol-4-yl)pyridin-2-yl)((4-(4-methoxy-3-methylphenyl)bicyclo[2.2.2]octan-1-yl)methyl)carbamoyl)(trans-cyclohexyl)(3-hydroxy-3-methylbutyl)carbamate] | ≤ 0.05 µM
